Patent publication US20220380319A1 (Bial - R&D Investments, S.A., priority 2019, published 2022)
Values after ≈ are worked out from the molar mass of the structure shown.

What was measured:
[1] = physchem; conditions: water
[2] = target: T1, acid ceramidase (Homo sapiens, UniProt Q13510); assay: Acid ceramidase inhibition, biochemical fluorescent assay with cell lysates overexpressing acid ceramidase, substrate Rbm14-12; conditions: substrate Rbm14-12 6.3 μM
T1 construct: Cell lysates overexpressing acid ceramidase were used as the enzyme source; expressed in transfected cells
T1 sequence (Q13510 22-395): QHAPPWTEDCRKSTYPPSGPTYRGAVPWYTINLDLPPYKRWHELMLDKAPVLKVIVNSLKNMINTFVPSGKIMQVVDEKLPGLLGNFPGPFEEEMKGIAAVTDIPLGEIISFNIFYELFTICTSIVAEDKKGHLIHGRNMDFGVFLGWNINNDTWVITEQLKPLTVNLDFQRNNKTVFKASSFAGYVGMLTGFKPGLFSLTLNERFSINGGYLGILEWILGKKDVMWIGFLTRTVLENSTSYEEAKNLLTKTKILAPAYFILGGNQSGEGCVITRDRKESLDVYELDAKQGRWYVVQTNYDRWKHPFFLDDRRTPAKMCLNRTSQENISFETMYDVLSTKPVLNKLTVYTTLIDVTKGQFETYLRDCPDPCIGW
How it was run: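 Lysate of cells overexpressing acid ceramidase (10 μg protein) preincubated with compound dose series 1 hr at RT in 25 mM NaAC, 100 mM NaCl, pH 4.5, then reacted 1 hr with 6.3 μM Rbm14-12. Stopped with NaIO4/glycine buffer pH 10.6, fluorescence ex360/em446; IC50 by four-parameter fit.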

[3] = Compound solubility in water

| SMILES | solubility [1] | IC50 ([2]; pH 4.5) | solubility [3] | IC50 ([2]; pH 4.5, 1 hr preincubation at RT) |
| --- | --- | --- | --- | --- |
| CC(C)CCNC(=O)n1cnc2c(N3CC3C(F)(F)F)cccc21 (stereo not shown) [Example 164, N-iso-Pentyl-4-(2-(trifluoromethyl)-aziridin-1-yl)-1H-benzo[d]imidazole-1-carboxamide] | 2 µg/mL (≈ 5.88 µM) | < 200 nM | – | – |
| O=C(NCCCc1ccccc1)n1cnc2c(N3CC3C(F)(F)F)cccc21 (stereo not shown) [Example 242, N-(3-phenylpropyl)-4-(2-(trifluoromethyl)aziridin-1-yl)-1H-benzo[d]imidazole-1-carboxamide] | 1 µg/mL (≈ 2.57 µM) | < 200 nM | – | – |
| O=C(NCCCc1ccccc1)n1cnc2c(N3CC3F)cccc21 (stereo not shown) [Example 274, 4-(2-Fluoroaziridin-1-yl)-N-(3-phenylpropyl)-1H-benzo[d]imidazole-1-carboxamide] | 17 µg/mL (≈ 50.2 µM) | < 200 nM | – | – |
| CC(C)C#CCNC(=O)n1cnc2c(N3CC3C(F)(F)F)cccc21 (stereo not shown) [Example 308, N-(4-Methylpent-2-yn-1-yl)-4-(2-(trifluoromethyl)-aziridin-1-yl)-1H-benzo[d]imidazole-1-carboxamide] | 1 µg/mL (≈ 2.85 µM) | < 200 nM | – | – |
| CN1CC2(CCN(c3cccc4c3ncn4C(=O)NCCC#Cc3ccccc3)CC2)C1 [Example 367, 4-(2-Methyl-2,7-diazaspiro[3.5]nonan-7-yl)-N-(4-phenylbut-3-yn-1-yl)-1H-benzo[d]imidazole-1-carboxamide] | – | – | 27 µg/mL (≈ 63.2 µM) | < 200 nM |
